“And” between values parts separate entries of the source, which are not always exact repeats. Identical values can stand only once. Like-named read-outs stand apart in the source and are kept apart here. Marks after values point to notes of the source that are not given here.
What was measured:
[1] = system: colonic lymph nodes; conditions: 0.6 g punicic acid/100 g food, least square mean ± SEM
Method: (§1) A total of twenty-two C57BL6 mice were used in Experiment 2. All mice were born on Nov. 23, 2003, weaned on Dec. 16, 2003 and fed the experimental diets from Dec. 19, 2003 to Jan. 15, 2004. […] Mice were weighed on a weekly basis. Mice were euthanized. Blood was collected from each mouse for generating serum, which was stored at −20° C. Thymus, spleen and colonic lymph nodes were harvested, weighed and collected in cRPMI in sterile conditions. Colon and liver specimens were collected in RNA later (Ambion Inc., Austin, Tex.) and frozen at −80° C. for gene expression analysis. Brain, kidney, liver, colon and ileum were also collected in a 10% buffered neutral formalin solution and processed as described in experiment 1 for histological evaluation. The remaining portion of the carcass was stored in 50-mL, conical tubes and frozen at −20° C. for body composition and fatty acid analysis. All specimens were generally labeled with the following information: 1) mouse number; 2) date collected; 3) experiment number; 4) type of solvent; and 5) tissue type. Tissue slides were examined in an Olympus microscope (Olympus America Inc., Dulles, Va.). Images were captured using the FlashBus FBG software (Integral Technologies, Indianapolis, Ind.) and processed in Adobe Photoshop Elements 2.0 (Adobe Systems Inc., San Jose, Calif.).
(§2) Spleens, thymuses and colonic lymph nodes were collected in complete RPMI on ice. Single-cell suspensions were obtained from each tissue by gently disrupting the tissue between two frosted ends of two glass slides on a petri dish containing 3 mL of cRPMI. The single-cell suspension was transferred from the petri dish to a 15-mL polypropylene tube (Fisher, Atlanta, Ga.) and washed by centrifuging in an Eppendorf 5810 R centrifuge (Westbury, N.Y.) at 200×g for 5 minutes at 4° C. The supernatant was discarded by decantation of the tube. The cell pellet was broken by gently tapping the tube against a solid surface. The total numbers of spleenocytes, thymocytes and colonic lymph node lymphocytes in each mouse were enumerated in a Z1 Coulter Single Particle Counter (Miami, Fla.). Briefly, 10-mL of isoton II diluent solution (Beckman Coulter, Miami, Fla.) were added into a counting vial, followed by 40 μL of the cell suspension, 4 drops of Zapaglobin (Beckman Coulter, Miami Fla.), and 10 additional mL of the isoton solution. The volume in which the cells were resuspended was assessed using a 5-mL, sterile pipette. The concentration of cells/mL and the total volume in each tube were used to determine the total amount of cells in each tissue and mouse.
(§3) A description of the uses of flow cytometry was provided in Experiment 1. Splenocyte suspensions were freed of erythrocytes by osmotic lysis (adding 4.5 mL of sterile deionized water for 1 to 2 seconds and then adding 0.5 mL of 10× PBS to make 1× PBS solution). Cells were washed again by centrifuging in an Eppendorf 5810 R centrifuge (Westbury, N.Y.) at 200×g for 5 minutes at 4° C. The supernatant was discarded by decantation of the tube. The cell pellet was broken by gently tapping the tube against a solid surface. FACS buffer (1 mL) was added in each tube. Splenocytes, thymocytes and colonic lymph node-derived mononuclear cells were enumerated in a Z1 Coulter Single Particle Counter (Miami, Fla.), adjusted to 2×10^6 cells/mL. Splenocytes, thymocytes, and colonic lymph nodes were analyzed for expression of CD4, CD8, CD3, TCRalphabeta, TCRgammadelta and CD19 molecules by flow cytometry as previously described (Bassaganya-Riera et al. 2001; Bassaganya-Riera et al. 2002; Bassaganya-Riera et al. 2003). Briefly, a volume of 100 μl of the splenocyte, thymocyte, and colonic lymph node lymphocyte suspension was added in to a round-bottomed microtiter plate (Becton Dickinson, Lincoln Park, N.J.) and stained with 50 μl of the primary antibody solutions in FACS buffer.

[2] = system: thymus; conditions: 0.6 g punicic acid/100 g food; least square mean ± SEM
Method: as §1, §2, §3

[3] = system: spleen; conditions: 0.6 g punicic acid/100 g food; least square mean ± SEM
Method: as §1, §2, §3

[4] = punicic acid-supplemented diets, 78 days
Excerpt: (§4) In Western countries, Metabolic Syndrome or Syndrome X (i.e., diabetes, obesity, cardiovascular disease, hypertension and hyperlipidemia) is on a steady rise. […] A total of fifty C57BL6 mice were used in experiment 4. […] These diets are defined as regular diets and were formulated to be isocaloric between treatment groups. […] The high fat diets were also formulated to be isocaloric between treatment groups. The remaining mice within each group (n=5) were fed the regular diets. On day 78 of the experiment, mice were killed, blood was collected and immediately analyzed for fasting glucose concentrations by using the Accu-Check Instant Plus System (Roche Diagnostics Corporation, Indianapolis, Ind.) or stored for subsequent analysis of insulin concentrations in plasma. Abdominal white adipose tissue and interscapular brown adipose tissue were collected, weighed and stored at −80° C. for RNA analyses. Liver, lungs, kidneys, pancreas and heart were examined for macroscopic abnormalities (gross lesions), fixed in phosphate-buffered formalin (10%) and processed as described in experiment 1 for histological evaluation. All specimens were generally labeled with the following information: 1) mouse number; 2) date collected; 3) experiment number; 4) type of solvent; and 5) tissue type.

[5] = 105-day dietary supplementation, 0.6 g punicic acid/100 g food
[6] = system: C57BL6 mice fed regular or high fat diets; conditions: day 78, least squares mean
Excerpt: as §4
Serum insulin concentrations were determined by using commercially available enzyme-linked immunosorbent assay kits (Linco Research, St. Charles, Mo.).
Data were analyzed by analysis of variance (ANOVA). The ANOVA was performed by using the general linear model procedure of SAS (SAS Institute Inc., Cary, N.C.) as previously described (Bassaganya-Riera et al. 2004). Differences with probability value (P<0.05) were considered significant.

[7] = 0.6 g punicic acid/100 g food, 38 days, oral
Excerpt: All specimens were generally labeled with the following information: 1) mouse number; 2) date collected; 3) experiment number; 4) type of solvent; and 5) tissue type.

[8] = system: C57BL6 mice fed regular or high fat diets; conditions: day 78, intraperitoneal D-glucose after 14 hours fast
Excerpt: as §4
A glucose tolerance test was conducted on day 78 of the experiment. Animals were fasted overnight (14 hours).

[9] = system: lymph node-derived lymphocytes
Method: (§5) cRPMI medium was prepared as shown above. Wells of 96-well flat-bottomed microtiter plates (Becton Dickinson, Lincoln Park, N.J.) were seeded with 2×10^5 mononuclear cells in a total volume of 200 μl per well. Wells contained either concanavalin A (5 μg/ml, Con-A; Sigma), or medium alone (non-stimulated). Plates were incubated for 5 days at 37° C. in 5% CO2 humidified atmosphere. After 5 days, 0.5 μCi of methyl-[^3H] thymidine (specific radioactivity 6.7 Ci mmol^−1; Amersham Life Science, Arlington Heights, Ill.) in 10 μl of medium was added to each well and plates incubated for an additional 20 h. Well contents were harvested onto fiber filters with a PHD cell harvester (Skatron Instruments Inc., Sterling, Va.) and incorporated radioactivity measured by liquid scintillation counting (Beckman Instruments, Schaumburg, Ill.). Samples were run in triplicate and stimulation indices (SI) calculated by dividing counts min^−1 of stimulated wells by counts min^−1 from non-stimulated wells.
(§6) Statistical analysis was performed by analysis of variance (ANOVA). […] Differences with a probability value (P<0.05) were considered statistically significant.

[10] = system: splenocytes
Method: as §5, §6

[11] = system: C57BL6 mice challenged with 2.5% DSS; test: DSS colitis model of experimental IBD (Experiment 1); format: in vivo
[12] = system: splenocytes stimulated with VR-1469 influenza virus antigens
[13] = concanavalin A 5 μg/ml, cells from mice fed 0.6 g punicic acid/100 g food
[14] = counts of Con A-stimulated wells divided by counts of non-stimulated wells
[15] = non-stimulated, cells from mice fed 0.6 g punicic acid/100 g food
[16] = 7-day challenge with 2.5% DSS, grade 0 to 4, least square mean ± SEM

## CCCC\C=C/C=C/C=C\CCCCCCCC(=O)O [punicic acid]
[1]
  colonic lymph nodes: CD3^+ T cells: 10.24 ± 0.85
  colonic lymph nodes: CD4^+ T cells: 6.65 ± 0.58
  colonic lymph nodes: CD8^+ T cells: 4.53 ± 0.41
  colonic lymph nodes: CD19^+ T cells: 5.98 ± 0.72
  colonic lymph nodes: Lymphocytes: 18.64 ± 1.53 ×10^6/mL
  colonic lymph nodes: TCR αβ^+T cells: 11.78 ± 1.08
  colonic lymph nodes: Weight: 261.66 mg
[1]; listed as Punicic Acid
  colonic lymph nodes: Weight: 261.66 ± 3.28 mg
[2]
  thymus: CD4^+ thymocytes: 2.51 ± 0.28
  thymus: CD4^+CD8^+ thymocytes: 63.25 ± 8.73
  thymus: CD8^+ thymocytes: 1.34 ± 0.18
  thymus: Lymphocytes: 69.18 ± 9.56 ×10^6/mL
  thymus: TCR αβ^+ thymocytes: 9.12 ± 1.21
  thymus: Weight: 845.00 ± 4.68 mg
[3]
  spleen: CD3^+ T cells: 30.05 ± 1.78
  spleen: CD4^+ T cells: 17.04 ± 1.10
  spleen: CD8^+ T cells: 12.72 ± 0.73
  spleen: CD19^+ T cells: 102.22 ± 5.42
  spleen: TCR αβ^+T cells: 33.12 ± 1.93
  spleen: Total # of lymphocytes: 144.21 ± 7.13 ×10^6/mL
  spleen: Weight: 884.54 ± 3.30 mg
[4]
  fatty liver or enlarged viscera: not observed
[5]
  H&E histology of brain, kidneys, liver, heart and lungs: no microscopic lesions
  adverse effects or clinical signs throughout the study: No negative adverse effects
[6]; High Fat Diets
  Brown adipose tissue (interscapular) weight: 0.124 g
  White adipose tissue (abdominal) weight: 0.830^b g
  plasma fasting Glucose: 219.5^b mg/dL
  plasma fasting Insulin: 1.229^b ng/mL
[6]; Regular Diets
  Brown adipose tissue (interscapular) weight: 0.138 g
  White adipose tissue (abdominal) weight: 0.801^b g
  plasma fasting Glucose: 121.40^b mg/dL
  plasma fasting Insulin: 0.669^b ng/mL
[7]
  adverse effects throughout the duration of the study: No adverse effects were observed
  macroscopic and histologic analysis of liver, kidneys and brain: no abnormalities
[8]; high fat diets
  glucose tolerance versus control diet: normalizes impaired glucose tolerance
[8]; regular diets
  glucose tolerance versus control diet: not different
[9]; [13]
  Counts/minute lymph nodes (cRPMI & ConA): 929.06 ± 161.10 Counts/minute
[9]; [14]
  Stimulation index lymph nodes: 22.40 ± 3.61
[9]; [15]
  Counts/minute lymph nodes (cRPMI): 43.12 ± 3.76 Counts/minute
[10]; [13]
  Counts/minute spleen (cRPMI & ConA): 1905.27 ± 254.42 Counts/minute
[10]; [14]
  Stimulation index spleen: 25.20 ± 3.16
[10]; [15]
  Counts/minute spleen (cRPMI): 73.17 ± 10.96 Counts/minute
[11]; 0.6 g punicic acid/100 g food, 2.5% DSS challenge
  start of rectal bleeding, on average: 7 day of the DSS challenge
[11]; 0.6 g punicic acid/100 g food, by day 6 of the 2.5% DSS challenge
  mortality rate associated with colonic inflammation: 0%
[11]; [16]
  Histological score: Crypt Damage: 0.33 ± 0.26
  Histological score: Epithelial Erosion: 0.00 ± 0.00
  Histological score: Inflammatory Cell Infiltration: 0.50 ± 0.17
  Histological score: Metaplasia/Hyperplasia: 0.50 ± 0.28
  Histological score: Mucosal Thickness: 1.83 ± 0.24
  Histological score: Vascular Changes: 0.50 ± 0.35
[11]; diet fed 32 days prior to 7-day DSS challenge (2.5%, wt/vol)
  colitis-associated disease: improved
[11]; following the DSS challenge
  average colon weights: 0.153 grams
  average macroscopic score in colons (scale from 0 to 3): 1.4
  histopathological examination of H&E-stained slides of colon: no major lesions
[12]
  Relative Proliferation Index B cells: 1.15 ± 0.63 and 1.16 ± 0.27
  Relative Proliferation Index CD4^+ T cells: 0.68 ± 0.48 and 1.10 ± 0.63

— patent US8258188B2 (priority 2004, dated 2012)
